Data published in ChEMBL document CHEMBL1158833, “Roquefortine E, a diketopiperazine from an Australian isolate of Gymnoascus reessii” (2005).
In brackets after ≈: the same amount, converted by molar mass.

Experiments:
[1] = Cytotoxicity against mouse NS1 cells; assay type: functional
Bacillus subtilis = assay: Antimicrobial activity against Bacillus subtilis; assay type: functional

SMILES | LD99 [1] [µg/mL] | MIC (Bacillus subtilis) [µg/mL]
C=CC(C)(C)[C@@]12C[C@H]3C(=O)N/C(=C/c4c[nH]cn4)C(=O)N3[C@@H]1Nc1ccccc12 [ROQUEFORTINE C] | 50 | 6.3 (≈ 16.2 µM)
C=CC(C)(C)c1[nH]cnc1/C=C1/NC(=O)[C@@H]2C[C@@]3(C(C)(C)C=C)c4ccccc4N[C@H]3N2C1=O [ROQUEFORTINE E] | 24 | 
